ChEMBL document CHEMBL5131534, “Identification of 2-Pyridinylindole-Based Dual Antagonists of Toll-like Receptors 7 and 8 (TLR7/8)” (ACS Med Chem Lett, 2022)

How the values were obtained:
Mus musculus [1] = test: Anti-inflammatory activity against MRL/Ipr Systemic lupus erythematosus mouse model assessed as inhibition of urinary NGAL at 20 mg/kg, po administered for 8 weeks and measured 24 hrs post final dose relative to control; type: functional; set-up: scale not given: the % may be the effect or the level left; conditions: time 1368 hrs
Mus musculus [2] = test: Anti-inflammatory activity against MRL/Ipr Systemic lupus erythematosus mouse model assessed as inhibition of anti-Sm/RNP Ab titer at 0.1 mg/kg, po administered for 8 weeks and measured 24 hrs post final dose relative to control; type: functional; set-up: scale not given: the % may be the effect or the level left; conditions: time 1368 hrs
Toll-like receptor 4 = Toll-like receptor 4 (Homo sapiens, UniProt O00206); test: Antagonist activity at […] stimulated human TRL4 overexpressed in HEK293 cells assessed as inhibition of NF kappa B/Ap-1 activation preincubated with compound for 30 mins followed by […] stimulation measured after 22 hrs by SEAP reporter assay; type: cell-based
[3] = Half life in mouse blood at 5 mg/kg, iv; type: ADME, organism-based
[4] = In vivo antagonist activity at TRL7 in C57BL/6 mouse assessed as inhibition of gardiquimod stimulated IL-6 production at 0.03 mg/kg,po for 30 minutes and followed by gardiquimod addition measured after 90 mins by ELISA analysis relative to control; type: functional; set-up: scale not given: the % may be the effect or the level left; conditions: time 120 min, 2 h
Mus musculus [5] = test: Anti-inflammatory activity against MRL/Ipr Systemic lupus erythematosus mouse model assessed as inhibition of urinary NGAL at 1 mg/kg, po administered for 8 weeks and measured 24 hrs post final dose relative to control; type: functional; set-up: scale not given: the % may be the effect or the level left; conditions: time 1368 hrs
[6] = In vivo antagonist activity at TRL9 in C57BL/6 mouse assessed as inhibition of ODN1585 stimulated IL-6 production at 1 mg/kg,po for 30 minutes and followed by ODN1585 addition measured after 90 mins by ELISA analysis relative to control; type: functional; set-up: scale not given: the % may be the effect or the level left; conditions: time 120 min, 2 h
Mus musculus [7] = test: Anti-inflammatory activity against MRL/Ipr Systemic lupus erythematosus mouse model assessed as inhibition of proteinuria at 20 mg/kg, po administered for 8 weeks and measured 24 hrs post final dose relative to control; type: functional; set-up: scale not given: the % may be the effect or the level left; conditions: time 1368 hrs
[8] = In vivo antagonist activity at TRL7 in C57BL/6 mouse assessed as inhibition of gardiquimod stimulated IL-6 production at […],po for 30 minutes and followed by gardiquimod addition measured after 90 mins by ELISA analysis relative to control; type: functional; set-up: scale not given: the % may be the effect or the level left; conditions: time 120 min, 2 h
[9] = Drug concentration in mouse blood at 15 mg/kg, po measured at 24 hrs; type: ADME, organism-based; conditions: read-out: Ct
Toll-like receptor 7 [10] = biological target: T1, Toll-like receptor 7 (Homo sapiens, UniProt Q9NYK1); test: Antagonist activity at gardiquimod stimulated TRL7 in human whole blood assessed as inhibition of IL-6 production by ELISA analysis; type: tissue-based
T1 sequence (Q9NYK1 whole entry): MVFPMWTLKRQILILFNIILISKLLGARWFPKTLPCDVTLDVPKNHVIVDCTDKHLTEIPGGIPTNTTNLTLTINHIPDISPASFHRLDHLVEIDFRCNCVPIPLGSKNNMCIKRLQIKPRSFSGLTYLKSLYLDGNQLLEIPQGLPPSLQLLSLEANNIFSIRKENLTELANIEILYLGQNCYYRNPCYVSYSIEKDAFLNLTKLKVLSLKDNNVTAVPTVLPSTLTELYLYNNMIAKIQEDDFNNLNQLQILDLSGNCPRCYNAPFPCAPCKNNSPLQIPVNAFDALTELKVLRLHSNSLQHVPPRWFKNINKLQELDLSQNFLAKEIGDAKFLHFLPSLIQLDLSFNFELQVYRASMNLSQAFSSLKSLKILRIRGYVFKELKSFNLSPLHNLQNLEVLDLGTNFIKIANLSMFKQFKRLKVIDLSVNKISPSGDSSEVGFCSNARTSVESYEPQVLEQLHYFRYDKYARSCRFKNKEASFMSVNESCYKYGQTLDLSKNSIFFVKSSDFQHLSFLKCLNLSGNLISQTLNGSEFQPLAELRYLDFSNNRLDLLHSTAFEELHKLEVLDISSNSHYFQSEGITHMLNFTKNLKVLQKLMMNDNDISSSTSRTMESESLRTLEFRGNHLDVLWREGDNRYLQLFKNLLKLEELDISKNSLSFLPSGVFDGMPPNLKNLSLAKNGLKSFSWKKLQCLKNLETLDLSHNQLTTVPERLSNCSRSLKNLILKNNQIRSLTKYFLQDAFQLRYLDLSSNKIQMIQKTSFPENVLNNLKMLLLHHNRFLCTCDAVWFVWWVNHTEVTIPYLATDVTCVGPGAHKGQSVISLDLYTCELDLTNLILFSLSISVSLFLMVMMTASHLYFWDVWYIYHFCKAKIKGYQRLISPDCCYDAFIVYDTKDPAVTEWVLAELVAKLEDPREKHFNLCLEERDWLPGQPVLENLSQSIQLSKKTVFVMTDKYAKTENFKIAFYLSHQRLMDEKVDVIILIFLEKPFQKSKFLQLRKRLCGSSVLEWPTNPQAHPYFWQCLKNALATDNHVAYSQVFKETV

[11] = AUClast in mouse blood at 5 mg/kg, iv; type: ADME, organism-based; set-up: time 0 - last, dose 5 mg/kg, route iv
[12] = Toxicity in MRL/Ipr Systemic lupus erythematosus mouse model assessed as relative spleen weight at 1 mg/kg, po administered for 8 weeks and measured 24 hrs post final dose relative to control; type: organism-based; conditions: in vivo, 1368 h
[13] = In vivo antagonist activity at TRL7 in C57BL/6 mouse assessed as inhibition of gardiquimod stimulated IL-6 production at 0.5 mg/kg,po for 30 minutes and followed by gardiquimod addition measured after 90 mins by ELISA analysis relative to control; type: functional; set-up: scale not given: the % may be the effect or the level left; conditions: time 120 min, 2 h
Toll-like receptor 7 [14] = biological target: T1, Toll-like receptor 7; test: Antagonist activity at gardiquimod stimulated TRL7 in human PBMC cells assessed as inhibition of IL-6 production by ELISA analysis; type: cell-based
Mus musculus [15] = test: Anti-inflammatory activity against MRL/Ipr Systemic lupus erythematosus mouse model assessed as inhibition of anti-dsDNA Ab titer at 1 mg/kg, po administered for 8 weeks and measured 24 hrs post final dose relative to control; type: functional; set-up: scale not given: the % may be the effect or the level left; conditions: time 1368 hrs
Mus musculus [16] = test: Anti-inflammatory activity against MRL/Ipr Systemic lupus erythematosus mouse model assessed as inhibition of urinary NGAL at 5 mg/kg, po administered for 8 weeks and measured 24 hrs post final dose relative to control; type: functional; set-up: scale not given: the % may be the effect or the level left; conditions: time 1368 hrs
Mus musculus [17] = test: Anti-inflammatory activity against MRL/Ipr Systemic lupus erythematosus mouse model assessed as inhibition of anti-Sm/RNP Ab titer at 1 mg/kg, po administered for 8 weeks and measured 24 hrs post final dose relative to control; type: functional; set-up: scale not given: the % may be the effect or the level left; conditions: time 1368 hrs
[18] = Cmax in mouse blood at 15 mg/kg, po; type: ADME, organism-based; set-up: dose 15 mg/kg, route po
Mus musculus [19] = test: Anti-inflammatory activity against MRL/Ipr Systemic lupus erythematosus mouse model assessed as inhibition of proteinuria at 0.1 mg/kg, po administered for 8 weeks and measured 24 hrs post final dose relative to control; type: functional; set-up: scale not given: the % may be the effect or the level left; conditions: time 1368 hrs
Mus musculus [20] = test: Anti-inflammatory activity against MRL/Ipr Systemic lupus erythematosus mouse model assessed as inhibition of proteinuria at 1 mg/kg, po administered for 8 weeks and measured 24 hrs post final dose relative to control; type: functional; set-up: scale not given: the % may be the effect or the level left; conditions: time 1368 hrs

Toll-like receptor 4, sequence (O00206 whole entry): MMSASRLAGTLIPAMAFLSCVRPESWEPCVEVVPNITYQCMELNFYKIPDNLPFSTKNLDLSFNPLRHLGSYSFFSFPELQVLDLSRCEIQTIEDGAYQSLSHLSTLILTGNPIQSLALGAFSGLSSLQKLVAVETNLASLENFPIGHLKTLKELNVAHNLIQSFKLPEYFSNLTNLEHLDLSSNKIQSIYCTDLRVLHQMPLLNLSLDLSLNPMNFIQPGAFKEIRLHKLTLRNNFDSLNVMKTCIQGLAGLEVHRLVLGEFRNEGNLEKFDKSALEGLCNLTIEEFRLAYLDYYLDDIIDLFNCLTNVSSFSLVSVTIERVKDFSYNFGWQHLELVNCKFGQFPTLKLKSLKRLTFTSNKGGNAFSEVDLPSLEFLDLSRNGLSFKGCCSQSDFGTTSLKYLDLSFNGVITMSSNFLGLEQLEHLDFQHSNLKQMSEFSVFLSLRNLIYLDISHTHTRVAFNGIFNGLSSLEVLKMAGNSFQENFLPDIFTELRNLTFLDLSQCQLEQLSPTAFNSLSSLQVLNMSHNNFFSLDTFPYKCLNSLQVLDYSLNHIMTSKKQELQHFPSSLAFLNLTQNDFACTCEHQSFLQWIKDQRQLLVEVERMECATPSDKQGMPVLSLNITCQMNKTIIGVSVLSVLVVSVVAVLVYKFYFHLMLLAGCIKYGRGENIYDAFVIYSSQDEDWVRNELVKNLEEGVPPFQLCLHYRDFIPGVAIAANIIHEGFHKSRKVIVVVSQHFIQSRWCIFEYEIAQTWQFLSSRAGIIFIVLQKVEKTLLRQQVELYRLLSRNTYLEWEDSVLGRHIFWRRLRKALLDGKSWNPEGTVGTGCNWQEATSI

## Cc1cc(-c2[nH]c3ccc(C4CCNCC4)cc3c2C(C)C)cc(C)n1
Mus musculus [1]
  Activity: 81%
Mus musculus [2]
  Activity: 27%
Toll-like receptor 4
  IC50: > 10000 nM
[3]
  half-life: 9 h
[4]
  Activity: 28%
Mus musculus [5]
  Activity: 69%
[6]
  Activity: 16%
Mus musculus [7]
  Activity: 93%
[8]
  Activity: 83%
[9]
  concentration at 24 h: 22 nM
Toll-like receptor 7 [10]
  IC50: 1.4 nM
[11]
  AUC(0-t): 1.58 µM·h
[12]
  Activity: 48%
[13]
  Activity: 98%
Toll-like receptor 7 [14]
  IC50: 1 nM
Mus musculus [15]
  Activity: 14%
Mus musculus [16]
  Activity: 72%
Mus musculus [17]
  Activity: 84%
[18]
  Cmax: 255 nM
Mus musculus [19]
  Activity: 69%
Mus musculus [20]
  Activity: 92%
